These results are taken from patent publication US7943651B2, “Compounds” (Glaxo Group Limited, priority 2006, dated 2011).

Where only a bound is given, the exact number is not on record here.

In the test the test system is NFkB activity. Briefly: Glucocorticoid Mediated Transrepression of NFkB Activity. The test is classed as cell-based. The settings on record: Human A549 lung epithelial cells, NFkB dependent ELAM promoter alkaline phosphatase reporter, 3 ng/ml TNFα. From the text: Glucocorticoid Mediated Transrepression of NFkB Activity
Human A549 lung epithelial cells were engineered to contain a secreted placental alkaline phosphatase gene under the control of the distal region of the NFkB dependent ELAM promoter as previously described in Ray, K. P., Farrow, S., Daly, M., Talabot, F. and Searle, N. “Induction of the E-selectin promoter by interleukin 1 and tumour necrosis factor alpha, and inhibition by glucocorticoids” Biochemical Journal (1997) 328: 707-15.
Compounds were solvated and diluted in DMSO, and transferred directly into assay plates such that the final concentration of DMSO was 0.7%. Following the addition of cells (40K per well), plates were incubated for 1 hr prior to the addition of 3 ng/ml human recombinant TNFα. Following continued incubation for 16 hr, alkaline phosphatase activity was determined by measuring the change in optical density at 405 nm with time following the addition of 0.7 volumes of assay buffer (1 mg/ml p-nitrophenylphosphate dissolved in 1M diethanolamine, 0.28M NaCl, 0.5 mM MgCl2). Dose response curves were constructed from which EC50 values were estimated.
As to `COc1ccc(F)cc1C(C)(C)CC(O)(CNc1cc(C)cc2c1cnn2-c1cccc(C(=O)N[C@H](C)C(N)=O)c1)C(F)(F)F` (mixture of isomers) [Example 3, N-[(1R)-2-Amino-1-methyl-2-oxoethyl]-3-(4-{[4-[5-fluoro-2-(methyloxy)phenyl]-2-hydroxy-4-methyl-2-(trifluoromethyl)pentyl]amino}-6-methyl-1H-indazol-1-yl)benzamide], the EC50 – broadly, the concentration giving half of the maximal effect – was below 3.16 nM. As for `COc1ccc(F)cc1C(C)(C)CC(O)(CNc1cc(C)cc2c1cnn2-c1cccc(C(=O)N2CCC[C@@H]2C(N)=O)c1)C(F)(F)F` (mixture of isomers) [Example 7, 1-{[3-(4-{[4-[5-Fluoro-2-(methyloxy)phenyl]-2-hydroxy-4-methyl-2-(trifluoromethyl)pentyl]amino}-6-methyl-1H-indazol-1-yl)phenyl]carbonyl}-D-prolinamide], the figure is below 3.16 nM. `COc1ccc(F)cc1C(C)(C)CC(O)(CNc1cc(C)cc2c1cnn2-c1cccc(C(=O)NCC(N)=O)c1)C(F)(F)F` (racemic) [Example 1, N-(2-Amino-2-oxoethyl)-3-(4-{[4-[5-fluoro-2-(methyloxy)phenyl]-2-hydroxy-4-methyl-2-(trifluoromethyl)pentyl]amino}-6-methyl-1H-indazol-1-yl)benzamide] gave an EC50 below 3.16 nM. For the compound `COc1ccc(F)cc1C(C)(C)CC(O)(CNc1cc(C)cc2c1cnn2-c1cccc(C(=O)N(C)CC(N)=O)c1)C(F)(F)F` (racemic) [Example 2, N-(2-Amino-2-oxoethyl)-3-(4-{[4-[5-fluoro-2-(methyloxy)phenyl]-2-hydroxy-4-methyl-2-(trifluoromethyl)pentyl]amino}-6-methyl-1H-indazol-1-yl)-N-methylbenzamide], the 50% effective concentration (EC50) was below 3.16 nM.

`COc1ccc(F)cc1C(C)(C)CC(O)(CNc1cc(C)cc2c1cnn2-c1cccc(C(=O)NC(C)(C)C(N)=O)c1)C(F)(F)F` (racemic) [Example 5, N-(2-Amino-1,1-dimethyl-2-oxoethyl)-3-(4-{[4-[5-fluoro-2-(methyloxy)phenyl]-2-hydroxy-4-methyl-2-(trifluoromethyl)pentyl]amino}-6-methyl-1H-indazol-1-yl)benzamide] gave a concentration giving a half-maximal response (EC50) below 3.16 nM. Regarding `COc1ccc(F)cc1C(C)(C)CC(O)(CNc1cc(C)cc2c1cnn2-c1cccc(C(=O)NCC(N)=O)c1)C(F)(F)F` (single isomer, unassigned) [Example 1-A, N-(2-amino-2-oxoethyl)-3-(4-{[4-[5-fluoro-2-(methyloxy)phenyl]-2-hydroxy-4-methyl-2-(trifluoromethyl)pentyl]amino}-6-methyl-1H-indazol-1-yl)benzamide], the concentration for a half-maximal effect (EC50) is below 3.16 nM. For `COc1ccc(F)cc1C(C)(C)CC(O)(CNc1cc(C)cc2c1cnn2-c1cccc(C(=O)N(C)CC(N)=O)c1)C(F)(F)F` (single isomer, unassigned) [Example 2-A, N-(2-amino-2-oxoethyl)-3-(4-{[4-[5-fluoro-2-(methyloxy)phenyl]-2-hydroxy-4-methyl-2-(trifluoromethyl)pentyl]amino}-6-methyl-1H-indazol-1-yl)-N-methylbenzamide], the EC50 is below 3.16 nM. Compound `COc1ccc(F)cc1C(C)(C)CC(O)(CNc1cc(C)cc2c1cnn2-c1cccc(C(=O)N[C@H](C)C(N)=O)c1)C(F)(F)F` (single isomer, unassigned) [Example 3-A] had an EC50 below 3.16 nM. For `COc1ccc(F)cc1C(C)(C)CC(O)(CNc1cc(C)cc2c1cnn2-c1cccc(C(=O)NC(C)(C)C(N)=O)c1)C(F)(F)F` (single isomer, unassigned) [Example 5-A, N-(2-amino-1,1-dimethyl-2-oxoethyl)-3-(4-{[4-[5-fluoro-2-(methyloxy)phenyl]-2-hydroxy-4-methyl-2-(trifluoromethyl)pentyl]amino}-6-methyl-1H-indazol-1-yl)benzamide], the EC50 is below 3.16 nM.

`COc1ccc(F)cc1C(C)(C)C[C@@](O)(CNc1cc(C)cc2c1cnn2-c1cccc(C(=O)N2CCC[C@@H]2C(N)=O)c1)C(F)(F)F` (single isomer, unassigned) [Example 7-A] gave a concentration giving a half-maximal response (EC50) below 3.16 nM. Turning to `COc1ccc(F)cc1C(C)(C)CC(O)(CNc1cc(C)cc2c1cnn2-c1cccc(C(=O)N[C@@H](C)C(N)=O)c1)C(F)(F)F` (stereo partly drawn) [Example 4, N-[(1S)-2-Amino-1-methyl-2-oxoethyl]-3-(4-{[4-[5-fluoro-2-(methyloxy)phenyl]-2-hydroxy-4-methyl-2-(trifluoromethyl)pentyl]amino}-6-methyl-1H-indazol-1-yl)benzamide], the EC50 was below 3.16 nM. With `COc1ccc(F)cc1C(C)(C)CC(O)(CNc1cc(C)cc2c1cnn2-c1cccc(C(=O)N2CCC[C@H]2C(N)=O)c1)C(F)(F)F` (stereo partly drawn) [Example 6, 1-{[3-(4-{[4-[5-Fluoro-2-(methyloxy)phenyl]-2-hydroxy-4-methyl-2-(trifluoromethyl)pentyl]amino}-6-methyl-1H-indazol-1-yl)phenyl]carbonyl}-L-prolinamide], the EC50 was below 3.16 nM. As for `COc1ccc(F)cc1C(C)(C)CC(O)(CNc1cc(C)cc2c1cnn2-c1cccc(C(=O)N[C@@H](CO)C(N)=O)c1)C(F)(F)F` (stereo partly drawn) [Example 8, N-[(1S)-2-Amino-1-(hydroxymethyl)-2-oxoethyl]-3-(4-{[4-[5-fluoro-2-(methloxy)phenyl]-2-hydroxy-4-methyl-2-(trifluoromethyl)pentyl]amino}-6-methyl-1H-indazol-1-yl)benzamide], the figure is below 3.16 nM; as for `Cc1cc(NCC(O)(CC(C)(C)c2cc(F)ccc2O)C(F)(F)F)c2cnn(-c3cccc(C(=O)N(C)CC(N)=O)c3)c2c1` (stereo not shown) [Example 9, N-(2-Amino-2-oxoethyl)-3-(4-{[4-(5-fluoro-2-hydroxyphenyl)-2-hydroxy-4-methyl-2-(trifluoromethyl)pentyl]amino}-6-methyl-1H-indazol-1-yl)-N-methylbenzamide], below 3.16 nM.

`Cc1cc(NCC(O)(CC(C)(C)c2cc(F)ccc2O)C(F)(F)F)c2cnn(-c3cccc(C(=O)NCC(N)=O)c3)c2c1` (stereo not shown) [Example 10, N-(2-Amino-2-oxoethyl)-3-(4-{[4-(5-fluoro-2-hydroxyphenyl)-2-hydroxy-4-methyl-2-(trifluoromethyl)pentyl]amino}-6-methyl-1H-indazol-1-yl)benzamide] gave a concentration giving a half-maximal response (EC50) below 3.16 nM. Compound `Cc1cc(NCC(O)(CC(C)(C)c2cc(F)ccc2O)C(F)(F)F)c2cnn(-c3cccc(C(=O)N[C@H](C)C(N)=O)c3)c2c1` (stereo partly drawn) [Example 11, N-[(1R)-2-Amino-1-methyl-2-oxoethyl]-3-(4-{[4-(5-fluoro-2-hydroxyphenyl)-2-hydroxy-4-methyl-2-(trifluoromethyl)pentyl]amino}-6-methyl-1H-indazol-1-yl)benzamide] gave an EC50 below 3.16 nM. `Cc1cc(NCC(O)(CC(C)(C)c2cc(F)ccc2O)C(F)(F)F)c2cnn(-c3cccc(C(=O)N4CCC[C@@H]4C(N)=O)c3)c2c1` (stereo partly drawn) [Example 12, 1-{[3-(4-{[4-(5-Fluoro-2-hydroxyphenyl)-2-hydroxy-4-methyl-2-(trifluoromethyl)pentyl]amino}-6-methyl-1H-indazol-1-yl)phenyl]carbonyl}-D-prolinamide] had an EC50 below 3.16 nM. For `CNC(=O)CNC(=O)c1cccc(-n2ncc3c(NCC(O)(CC(C)(C)c4cc(F)ccc4OC)C(F)(F)F)cc(C)cc32)c1` (stereo not shown) [Example 13, 3-(4-{[4-[5-Fluoro-2-(methyloxy)phenyl]-2-hydroxy-4-methyl-2-(trifluoromethyl)pentyl]amino}-6-methyl-1H-indazol-1-yl)-N-[2-(methylamino)-2-oxoethyl]benzamide], the EC50 was below 3.16 nM.

As to `COc1ccc(F)cc1C(C)(C)CC(O)(CNc1cc(C)cc2c1cnn2-c1cccc(C(=O)N(C)[C@@H](C)C(N)=O)c1)C(F)(F)F` (stereo partly drawn) [Example 14, N-[(1S)-2-Amino-1-methyl-2-oxoethyl]-3-(4-{[4-[5-fluoro-2-(methloxy)phenyl]-2-hydroxy-4-methyl-2-(trifluoromethyl)pentyl]amino}-6-methyl-1H-indazol-1-yl)-N-methylbenzamide], the EC50 was below 3.16 nM. In turn, `COc1ccc(F)cc1C(C)(C)CC(O)(CNc1cc(C)cc2c1cnn2-c1cccc(C(=O)N(C)[C@H](C)C(N)=O)c1)C(F)(F)F` (stereo partly drawn) [Example 15, N-[(1R)-2-Amino-1-methyl-2-oxoethyl]-3-(4-{[4-[5-fluoro-2-(methloxy)phenyl]-2-hydroxy-4-methyl-2-(trifluoromethyl)-pentyl]amino}-6-methyl-1H-indazol-1-yl)-N-methylbenzamide] had a concentration giving a half-maximal response (EC50) below 3.16 nM. As to `COc1ccc(F)cc1C(C)(C)CC(O)(CNc1cc(C)cc2c1cnn2-c1cccc(C(=O)N[C@H](CO)C(N)=O)c1)C(F)(F)F` (stereo partly drawn) [Example 16, N-[(1R)-2-Amino-1-(hydroxymethyl)-2-oxoethyl]-3-(4-{[4-[5-fluoro-2-(methloxy)phenyl]-2-hydroxy-4-methyl-2-(trifluoromethyl)pentyl]amino}-6-methyl-1H-indazol-1-yl)benzamide], the 50% effective concentration (EC50) is below 3.16 nM. The compound `Cc1cc(NC[C@](O)(CC(C)(C)c2cc(F)ccc2O)C(F)(F)F)c2cnn(-c3cccc(C(=O)N4CCC[C@@H]4C(N)=O)c3)c2c1` [Example 17, 1-{[3-(4-{[(2R)-4-(5-Fluoro-2-hydroxyphenyl)-2-hydroxy-4-methyl-2-(trifluoromethyl)pentyl]amino}-6-methyl-1H-indazol-1-yl)phenyl]carbonyl}-D-prolinamide] had a half-maximal effective concentration (EC50) below 3.16 nM.
